Measured values from PMC5106528, “High-Throughput Toxicity and Phenotypic Screening of 3D Human Neural Progenitor Cell Cultures on a Microarray Chip Platform” (Stem Cell Reports, 2016).
Where two headings read alike, the source gives them in different places. Marks after values point to notes of the source that are not given here.

Tests used:
[1] = system: undifferentiated ReNcell VM NPCs; experiment: On-chip proliferation assay (EdU incorporation), undifferentiated NPCs; assay type: cell-based, human; conditions: for IC50 / Proliferation Effects Undifferentiating log(IC50 ± SEM): undifferentiated, 72 hr exposure, EdU for the final 24 hr, sigmoidal fit; for Effect on proliferation of NPC cultures (in words): state not specified
Description: (§1) Differential toxic effects could be explained, in part, as a consequence of the different proliferative states between the undifferentiated and differentiating NPCs. To this end, the thymidine analog, 5-ethynyl-2′-deoxyuridine (EdU), was used to detect actively proliferating cells on-chip following exposure to compounds or vehicle control to determine dose-response effects on proliferation (Figures 5B and S5), and sigmoidal curves were fit, when appropriate, to obtain IC50 values (Table 1). We found ∼60% of undifferentiated NPCs incorporated EdU over a 24-hr period as opposed to ∼3% of differentiating cultures.
(§2) Undifferentiated and differentiating cultures were screened for toxicity as described previously, except that after the first 48 hr of exposure 10 μM EdU (Click-iT EdU, Invitrogen) was added to the compound-containing medium for the final 24 hr. After 72 hr, on-chip cultures were fixed and processed as described previously for on-chip immunofluorescence; however, instead of antibody staining the cultures were incubated with solution containing Alexa Fluor 488-azide for 30 min as specified in the product manual. Cultures were then rinsed with DPBS for 30 min, incubated in DPBS with Hoechst 33342 (5 μg/mL) for 30 min, and washed in DPBS for 30 min before proceeding with a trehalose wash and drying as described previously. Nuclei were selected using Cellomics software from blue channel images to create a mask, which was used for identification of fluorescently labeled EdU in the green channel for quantification of actively proliferating cells over the 24-hr EdU exposure.

[2] = system: undifferentiated ReNcell VM NPCs; experiment: cells
Experimental: (§3) On-chip cultures of undifferentiated and 10-day differentiated NPCs were stamped with WellChips filled with compound-containing solutions and incubated for 72 hr prior to viability assessment. Vehicle-control normalized viabilities were plotted against compound concentration to generate dose-response plots (Figures 5A and S4). […] The sigmoidal fits for undifferentiated and differentiating NPCs were compared to assess whether differential sensitivities (i.e., different IC50 values) existed for the screened compounds.
(§4) Cell viability was determined in 3D on-chip cultures using a mammalian cell viability assay (LIVE/DEAD, Invitrogen). Prior to the assay, dead cell controls were prepared with 30 min incubation in a WellChip containing either […] 0.5% (w/v) saponin-DMEM/F12 medium in its microwells. […] After staining, PillarChips were rinsed twice with warm DPBS and incubated in DPBS containing 50 mM trehalose (Sigma) for 10 min before rapid drying with nitrogen and storage in the dark. Dried PillarChips were imaged with a Thermo Scientific Cellomics ArrayScan VTI high-content system.
(§5) Undifferentiated and differentiated microchip cultures were prepared as described above. Chemicals were purchased from Sigma or the NIH Small Molecule Repository (Table S2). Concentrated stocks were prepared and diluted into ReNcell Maintenance Medium to prepare the highest screened concentration solution for each compound. Four-fold serial dilutions were made in ReNcell Maintenance Medium, with all solutions having a final concentration of 0.5% or 1% DMSO (v/v) and 20 μg/mL Matrigel. For undifferentiated cultures, the solutions also contained 20 ng/mL of EGF and FGF2. These solutions were printed into WellChips, covered with a gas-permeable membrane, and warmed at 37°C for at least 5 min before stamping with cells. Each WellChip contained six compounds each at six concentrations (n = 10 biological replicates for each concentration) and the appropriate medium containing 0.5% or 1% DMSO for vehicle and dead controls (n = 32 biological replicates per control). PillarChip cultures were incubated with compounds for 72 hr with daily medium exchange to freshly prepared WellChips containing compounds at the appropriate concentrations. […] On-chip toxicity screens were repeated three times for undifferentiated and differentiated cultures. […]

[3] = system: differentiating ReNcell VM NPCs; experiment: cells
Experimental: as §3, §4, §5

[4] = system: differentiating ReNcell VM NPCs; experiment: cells; assay type: cell-based, human; conditions: for IC50 / Proliferation Effects Differentiating log(IC50 ± SEM): differentiating, 72 hr exposure, EdU for the final 24 hr, sigmoidal fit
Description: as §1, §2

[5] = Homo sapiens, ReNcell VM, read-out: Proliferation Effects Undifferentiating IC50
[6] = Homo sapiens, ReNcell VM, read-out: Proliferation Effects Undifferentiating log(IC50 ± SEM) (converted)
[7] = Homo sapiens, ReNcell VM, 72 h, read-out: Viability Effects Undifferentiated IC50
[8] = Homo sapiens, ReNcell VM, 72 h, read-out: Viability Effects Undifferentiated log(IC50 ± SEM) (converted)
[9] = Homo sapiens, ReNcell VM, read-out: Viability Effects Differentiating IC50
[10] = Homo sapiens, ReNcell VM, read-out: Viability Effects Differentiating log(IC50 ± SEM) (converted)
[11] = Homo sapiens, ReNcell VM, read-out: Proliferation Effects Differentiating IC50
[12] = Homo sapiens, ReNcell VM, read-out: Proliferation Effects Differentiating log(IC50 ± SEM) (converted)
[13] = read-out: Viability Effects Undifferentiated IC50, undifferentiated (+EGF/FGF2), 72 hr exposure, 1% Matrigel on-chip, sigmoidal fit
[14] = undifferentiated (+EGF/FGF2), 72 hr exposure, 1% Matrigel on-chip, sigmoidal fit
[15] = 10-day differentiated (−EGF/FGF2), 72 hr exposure, 1% Matrigel on-chip, sigmoidal fit
[16] = read-out: Viability Effects Differentiating IC50, 10-day differentiated (−EGF/FGF2), 72 hr exposure, 1% Matrigel on-chip, sigmoidal fit
[17] = undifferentiated cultures, 72 hr
[18] = differentiating cultures, 72 hr

O=c1[nH]cc(F)c(=O)[nH]1 [5-Fluorouracil]
IC50 [1, 5]: 1.35 µM
IC50 [1, 6]: 1.38 µM
Effect on proliferation of NPC cultures (in words) [1]: inhibit the proliferation
Effect on EdU incorporation (in words) ([1]; undifferentiated cultures): sharp decrease to no EdU incorporation
Effect on cell viability (in words) [2]: nearly complete killing
IC50 [2, 7]: 2.3 µM
IC50 [2, 8]: 2.29 µM
Normalized viability at Cmax, Undifferentiated, Mean ± SEM ([2]; human, 72 h): 0.15 ± 0.10
Effect on cell viability (in words) [3]: minimally impacting
IC50 [3, 9]: 2.3 µM
IC50 [3, 10]: 2.24 µM
Normalized viability at Cmax, Differentiating, Mean ± SEM ([3]; human, 72 h): 0.81 ± 0.17
IC50 [4, 11]: 1.82 µM
IC50 [4, 12]: 1.82 µM
Effect on EdU incorporation (in words) ([4]; differentiating cultures): sharp decrease to no EdU incorporation

CC(=O)Nc1ccc(O)cc1 [Acetaminophen]
IC50 [1, 5]: 1000 µM
IC50 [1, 6]: 1040 µM
Cytotoxicity (in words) [2]: no cytotoxicity at functionally relevant concentrations
IC50 [2, 7]: 1400 µM
IC50 [2, 8]: 1260 µM
Normalized viability at Cmax, Undifferentiated, Mean ± SEM ([2]; human, 72 h): -0.16 ± 0.07
IC50 [3, 9]: 18000 µM
IC50 [3, 10]: 20000 µM
Normalized viability at Cmax, Differentiating, Mean ± SEM ([3]; human, 72 h): -0.1 ± 0.03
IC50 [4, 11]: 18200 µM
IC50 [4, 12]: 18200 µM

CC(COc1ccccc1Cc1ccccc1)N1CCCCC1 (stereo not shown) [Benproperone, Benproperine]
Normalized viability at Cmax, Undifferentiated, Mean ± SEM [2]: 0.06 ± 0.52
Normalized viability at Cmax, Differentiating, Mean ± SEM [3]: 0.71 ± 0.30

[Cl][Cd][Cl] [Cadmium Chloride]
Proliferation Effects Undifferentiating log(IC50 ± SEM) [1]: 0.93 log(μM)
IC50 ([1]; read-out: Proliferation Effects Undifferentiating IC50): 8.6 µM
IC50 [2, 13]: 3.7 µM
Viability Effects Undifferentiated log(IC50 ± SEM) [2, 14]: 0.57 ± 0.3 log(μM)
Viability Effects Differentiating log(IC50 ± SEM) [3, 15]: 0.88 ± 0.27 log(μM)
IC50 [3, 16]: 7.6 µM
Proliferation Effects Differentiating log(IC50 ± SEM) [4]: 1.18 log(μM)
IC50 ([4]; read-out: Proliferation Effects Differentiating IC50): 15 µM

CC1(C)C[C@@H]1C(=O)N/C(=C\CCCCSC[C@H](N)C(=O)O)C(=O)O [Cilastatin]
Effect on proliferation of NPC cultures (in words) [1]: did not
Effect on cell viability (in words) [2, 17]: had no effect
Effect on cell viability (in words) [3, 18]: had no effect

Nc1ccn([C@@H]2O[C@H](CO)[C@@H](O)[C@@H]2O)c(=O)n1 [Cytosine Arabinoside]
Proliferation Effects Undifferentiating log(IC50 ± SEM) [1]: < −1 log(μM)
Normalized viability at Cmax, Undifferentiated, Mean ± SEM [2]: 0.40 ± 0.03
IC50 [2, 13]: 0.33 µM
Viability Effects Undifferentiated log(IC50 ± SEM) [2, 14]: −0.48 ± 0.17 ^b log(μM)
Normalized viability at Cmax, Differentiating, Mean ± SEM [3]: 0.47 ± 0.12
Viability Effects Differentiating log(IC50 ± SEM) [3, 15]: 0.55 ± 0.55 log(μM)
IC50 [3, 16]: 3.5 µM
Proliferation Effects Differentiating log(IC50 ± SEM) [4]: < −1 log(μM)

C[C@@H]1C[C@H]2[C@@H]3CCC4=CC(=O)C=C[C@]4(C)[C@@]3(F)[C@@H](O)C[C@]2(C)[C@@]1(O)C(=O)CO [Dexamethasone]
Normalized viability at Cmax, Undifferentiated, Mean ± SEM ([2]; human, 72 h): 1.35 ± 0.33
Normalized viability at Cmax, Differentiating, Mean ± SEM ([3]; human, 72 h): 1.08 ± 0.16

CN(C)CCOC(c1ccccc1)c1ccccc1 [Diphenhydramine]
Cytotoxicity (in words) [2]: no cytotoxicity at functionally relevant concentrations

COc1cccc2c1C(=O)c1c(O)c3c(c(O)c1C2=O)C[C@@](O)(C(=O)CO)C[C@@H]3O[C@H]1C[C@H](N)[C@H](O)[C@H](C)O1 [Doxorubicin]
IC50 [1, 6]: < 0.1 µM
IC50 [2, 7]: 0.8 µM
IC50 [2, 8]: 0.794 µM
Normalized viability at Cmax, Undifferentiated, Mean ± SEM ([2]; human, 72 h): 0.05 ± 0.13
IC50 [3, 9]: 2.7 µM
IC50 [3, 10]: 2.75 µM
Normalized viability at Cmax, Differentiating, Mean ± SEM ([3]; human, 72 h): 0.11 ± 0.16
IC50 [4, 12]: < 0.1 µM

O=C(O)CNCP(=O)(O)O [Glyphosate]
Normalized viability at Cmax, Undifferentiated, Mean ± SEM [2]: 0.01 ± 0.03
Normalized viability at Cmax, Differentiating, Mean ± SEM [3]: 0.41 ± 0.14

CC(=O)[O-].CC(=O)[O-].[Pb+2] [Lead Acetate]
Effect on cell viability (in words) [2, 17]: did not reduce cell viability
Effect on cell viability (in words) [3, 18]: did not reduce cell viability

[Cl][Mn][Cl] [Manganese Chloride]
Effect on cell viability (in words) [2, 17]: did not reduce cell viability
Effect on cell viability (in words) [3, 18]: did not reduce cell viability

CN1CCN2c3ncccc3Cc3ccccc3C2C1 (stereo not shown) [Mitrazepine, Mirtazapine]
Normalized viability at Cmax, Undifferentiated, Mean ± SEM ([2]; human, 72 h): 1.11 ± 0.09

O=C1CN=C(c2ccccc2)c2cc([N+](=O)[O-])ccc2N1 [Nitrazepam]
Normalized viability at Cmax, Undifferentiated, Mean ± SEM [2]: 1.16 ± 0.13
Normalized viability at Cmax, Differentiating, Mean ± SEM [3]: 1.07 ± 0.07

C[n+]1ccc(-c2cc[n+](C)cc2)cc1 [Paraquat]
IC50 [1, 5]: 59 µM
IC50 [1, 6]: 58.9 µM
Normalized viability at Cmax, Undifferentiated, Mean ± SEM [2]: -0.02 ± 0.03
IC50 [2, 7]: 57 µM
IC50 [2, 8]: 63.1 µM
Normalized viability at Cmax, Differentiating, Mean ± SEM [3]: 0.05 ± 0.02
IC50 [3, 9]: 41 µM
IC50 [3, 10]: 40.7 µM
IC50 [4, 11]: 30 µM
IC50 [4, 12]: 30.2 µM

Fc1ccc([C@@H]2CCNC[C@H]2COc2ccc3c(c2)OCO3)cc1 [Paroxetine]
Normalized viability at Cmax, Undifferentiated, Mean ± SEM ([2]; human, 72 h): 0.07 ± 0.13
Normalized viability at Cmax, Differentiating, Mean ± SEM ([3]; human, 72 h): 0.30 ± 0.38

O=C(O)C[C@H](O)C[C@H](O)/C=C/c1c(C2CC2)nc2ccccc2c1-c1ccc(F)cc1 [Pitavistatin]
IC50 [1, 5]: 2 µM
IC50 [1, 6]: 1.95 µM
Effect on proliferation of NPC cultures (in words) [1]: inhibited proliferation
Effect on cell viability (in words) [2]: cytotoxic only to undifferentiated NPCs
Normalized viability at Cmax, Undifferentiated, Mean ± SEM [2]: 0.14 ± 0.11
IC50 [2, 7]: 5.4 µM
IC50 [2, 8]: 5.37 µM
Effect on cell viability (in words) [3]: did not decrease the viability
Normalized viability at Cmax, Differentiating, Mean ± SEM [3]: 1.16 ± 0.07
IC50 [4, 11]: 0.98 µM
IC50 [4, 12]: 0.977 µM

CC1=C(/C=C/C(C)=C/C=C/C(C)=C/C(=O)O)C(C)(C)CCC1 [Retinoic Acid]
IC50 [1, 5]: 15 µM
IC50 [1, 6]: 14.8 µM
IC50 [2, 7]: 0.74 µM
IC50 [2, 8]: 0.741 µM
Normalized viability at Cmax, Undifferentiated, Mean ± SEM ([2]; human, 72 h): 0.55 ± 0.16
IC50 [3, 9]: 47 µM
IC50 [3, 10]: 50.1 µM
Normalized viability at Cmax, Differentiating, Mean ± SEM ([3]; human, 72 h): 0.50 ± 0.13
IC50 [4, 11]: 22 µM
IC50 [4, 12]: 22.4 µM
Increase of the average number of proliferating cells ([4]; differentiated cultures, at lower concentrations): greater than 3 fold

CCCC(CCC)C(=O)O [Valproic Acid]
Normalized viability at Cmax, Undifferentiated, Mean ± SEM ([2]; human, 72 h): 0.99 ± 0.08
Normalized viability at Cmax, Differentiating, Mean ± SEM ([3]; human, 72 h): 1.09 ± 0.10
